Source: patent US20230077362A1 (CORTEVA AGRISCIENCE LLC, priority 2019, published 2023)
Where two headings read alike, the source gives them in different places.

Tests used:
[1] = system: Cabbage Looper (Trichoplusia ni) ("CL"), second instar larvae; test: Bioassay on cabbage looper (CL), 128-well diet tray assay; assay type: in vivo; conditions: for pest or weed control at 50 µg/cm2: Trichoplusia ni; for CL rating: Table ABC, species CL, C = not tested, D = no activity noticed
Procedure: (§1) Certain molecules disclosed in this document were tested against BAW and CL using procedures described in the following examples. In the reporting of the results, the “BAW & CL Rating Table” was used (See Table Section).
(§2) Trays were covered with a clear self-adhesive cover and held at 25° C., 14:10 light-dark cycle for five to seven days. Percent mortality was recorded for the larvae in each well; activity in the eight wells was then averaged. The results are indicated in the table entitled “Table ABC: Biological Results” (See Table Section).

[2] = system: Beet Armyworm (Spodoptera exigua) ("BAW"), second instar larvae; test: Bioassay on beet armyworm (BAW), 128-well diet tray assay; assay type: in vivo; conditions: for pest or weed control at 50 µg/cm2: Spodoptera exigua; for BAW rating: Table ABC, species BAW, C = not tested, D = no activity noticed
Procedure: as §1, §2

[3] = read-out: CL (Biological Results, rating)
[4] = read-out: BAW (Biological Results, rating)

Row | SMILES | pest or weed control at 50 µg/cm2 ([1]; read-out: CL rating) | pest or weed control at 50 µg/cm2 ([2]; read-out: BAW rating) | further results
1 | CCCc1ccc(N(C)C)cc1N1C(=O)CS/C1=N\C(=O)Nc1ccc(-c2ncn(-c3ccc(SC(F)(F)F)cc3)n2)cc1 [Compound J388, (Z)-1-(3-(5-(Dimethylamino)-2-propylphenyl)-4-oxothiazolidin-2-ylidene)-3-(4-(1-(4-((trifluoromethyl)thio)phenyl)-1H-1,2,4-triazol-3-yl)phenyl)urea] | 50 to 100% | 50 to 100% | 
2 | Cc1ccc(OCCC(F)(F)F)c(N2C(=O)CS/C2=N\C(=O)Nc2ccc(-n3cnc(-c4ccc(OC(F)(F)F)cc4)n3)cc2Cl)c1 [Compound J737, (Z)-1-(2-Chloro-4-(3-(4-(trifluoromethoxy)phenyl)-1H-1,2,4-triazol-1-yl)phenyl)-3-(3-(5-methyl-2-(3,3,3-trifluoropropoxy)phenyl)-4-oxothiazolidin-2-ylidene)urea] | 50 to 100% | 50 to 100% | 
3 | Cc1ccc(COCC(F)(F)F)c(N2C(=O)CS/C2=N\C(=O)Nc2ccc(-c3ncn(-c4ccc(SC(F)(F)F)cc4)n3)cc2F)c1 [Compound J186, (Z)-1-(2-Fluoro-4-(1-(4-((trifluoromethyl)thio)phenyl)-1H-1,2,4-triazol-3-yl)phenyl)-3-(3-(5-methyl-2-((2,2,2-trifluoroethoxy)methyl)phenyl)-4-oxothiazolidin-2-ylidene)urea] |  |  | pest or weed control at 50 µg/cm2 [1, 3]: 50 to 100%; pest or weed control at 50 µg/cm2 [2, 4]: 50 to 100%
4 | Cc1ccc(N2C(=O)CS/C2=N\C(=O)Nc2ccc(-c3ncn(-c4ccc(C(F)(F)F)cn4)n3)cc2F)c(COCC(F)(F)F)c1 [Compound J451] |  |  | CL rating [1]: A (50-100); BAW rating [2]: A (50-100)
5 | COc1ccc(-n2cnc(-c3ccc(NC(=O)/N=C4\SCC(=O)N4c4cc(C)ccc4C(C)C)c(F)c3)n2)cc1 [Compound J144, (Z)-1-(2-Fluoro-4-(1-(4-methoxyphenyl)-1H-1,2,4-triazol-3-yl)phenyl)-3-(3-(2-isopropyl-5-methylphenyl)-4-oxothiazolidin-2-ylidene)urea] |  |  | pest or weed control at 50 µg/cm2 [1, 3]: 50 to 100%; pest or weed control at 50 µg/cm2 [2, 4]: 50 to 100%
6 | Cc1ccc(COCc2ccc(F)cc2C(F)(F)F)c(N2C(=O)CS/C2=N\C(=O)Nc2ccc(-c3ncn(-c4ccc(OC(F)(F)F)cc4)n3)cc2F)c1 [Compound J621, (Z)-1-(3-(2-(((4-Fluoro-2-(trifluoromethyl)benzyl)oxy)methyl)-5-methylphenyl)-4-oxothiazolidin-2-ylidene)-3-(2-fluoro-4-(1-(4-(trifluoromethoxy)phenyl)-1H-1,2,4-triazol-3-yl)phenyl)urea] | 50 to 100% | 50 to 100% | 
7 | COc1ccc(CC(F)(F)F)c(N2C(=O)CS/C2=N\C(=O)NC(C)Cc2ccc(-c3ncn(-c4ccc(OC(F)(F)F)cc4)n3)cc2)c1 (stereo not drawn) [Compound H15] |  |  | pest or weed control at 50 µg/cm2 [1, 3]: 50 to 100%; pest or weed control at 50 µg/cm2 [2, 4]: 50 to 100%
8 | CC(C)c1ccc(C#N)cc1N1C(=O)CS/C1=N\C(=O)Nc1ccc(-c2cn(-c3ccc(S(F)(F)(F)(F)F)cc3)cn2)cc1F [Compound J605, (Z)-1-(3-(5-Cyano-2-isopropylphenyl)-4-oxothiazolidin-2-ylidene)-3-(2-fluoro-4-(1-(4-(pentafluoro-λ^6-sulfaneyl)phenyl)-1H-imidazol-4-yl)phenyl)urea] | 50 to 100% | 50 to 100% | 
9 | Cc1cc(-c2cn(-c3ccc(S(F)(F)(F)(F)F)cc3)cn2)ccc1NC(=O)/N=C1\SCC(=O)N1c1cc(N(C)C)c(F)cc1C(C)C [Compound J619, (Z)-1-(3-(5-(Dimethylamino)-4-fluoro-2-isopropylphenyl)-4-oxothiazolidin-2-ylidene)-3-(2-methyl-4-(1-(4-(pentafluoro-λ^6-sulfaneyl)phenyl)-1H-imidazol-4-yl)phenyl)urea] | 50 to 100% | 50 to 100% | 
10 | Cc1ccc(COCC(F)(F)Cl)c(N2C(=O)CS/C2=N\C(=O)Nc2ccc(-c3ncn(-c4ccc(S(F)(F)(F)(F)F)cc4)n3)cc2F)c1 [Compound J449] |  |  | CL rating [1]: A (50-100); BAW rating [2]: A (50-100)
11 | Cc1ccc(C(C)C)c(N2C(=O)CS/C2=N\C(=O)Nc2ccc(-c3ncn(-c4ccc(OC(F)(F)F)cc4)n3)cc2C(F)(F)F)c1 [Compound J114, (Z)-1-(3-(2-Isopropyl-5-methylphenyl)-4-oxothiazolidin-2-ylidene)-3-(4-(1-(4-(trifluoromethoxy)phenyl)-1H-1,2,4-triazol-3-yl)-2-(trifluoromethyl)phenyl)urea] |  |  | pest or weed control at 50 µg/cm2 [1, 3]: 50 to 100%; pest or weed control at 50 µg/cm2 [2, 4]: 50 to 100%
12 | CC(C)c1ccc(N(C)C)cc1N1C(=O)CS/C1=N\C(=O)Nc1ccc(-c2ccn(-c3ccc(C(F)(F)F)nn3)n2)cc1F [Compound J391] | 50 to 100% | 50 to 100% | 
13 | COc1ccc(-n2cnc(-c3ccc(NC(=O)/N=C4\SCC(=O)N4c4cc(C)ccc4OCCC(F)(F)F)c(F)c3)n2)cc1 [Compound J147, (Z)-1-(2-Fluoro-4-(1-(4-methoxyphenyl)-1H-1,2,4-triazol-3-yl)phenyl)-3-(3-(5-methyl-2-(3,3,3-trifluoropropoxy)phenyl)-4-oxothiazolidin-2-ylidene)urea] |  |  | pest or weed control at 50 µg/cm2 [1, 3]: 50 to 100%; pest or weed control at 50 µg/cm2 [2, 4]: 50 to 100%
14 | CC(C)c1ccc(N(C)C)cc1N1C(=O)CS/C1=N\C(=O)Nc1ccc(-c2ncn(-c3cccc(OC(F)(F)F)c3)n2)cc1 [Compound J329, (Z)-1-(3-(5-(Dimethylamino)-2-isopropylphenyl)-4-oxothiazolidin-2-ylidene)-3-(4-(1-(3-(trifluoromethoxy)phenyl)-1H-1,2,4-triazol-3-yl)phenyl)urea] |  |  | pest or weed control at 50 µg/cm2 [1, 3]: 50 to 100%; pest or weed control at 50 µg/cm2 [2, 4]: 50 to 100%
15 | COc1ccc(COCC(F)(F)F)c(N2C(=O)CS/C2=N\C(=O)Nc2ccc(-c3ncn(-c4ccc(C(F)(F)F)cc4)n3)cc2F)c1 [Compound J581] |  |  | CL rating [1]: A (50-100); BAW rating [2]: A (50-100)
16 | Cc1ccc(OCC(F)(F)F)c(N2C(=O)CS/C2=N\C(=O)Nc2ccc(-c3ncn(-c4ccc(OC(F)(F)F)cc4)n3)cc2O)c1 [Compound J176, (Z)-1-(2-Hydroxy-4-(1-(4-(trifluoromethoxy)phenyl)-1H-1,2,4-triazol-3-yl)phenyl)-3-(3-(5-methyl-2-(2,2,2-trifluoroethoxy)phenyl)-4-oxothiazolidin-2-ylidene)urea] |  |  | pest or weed control at 50 µg/cm2 [2, 4]: 0 to 50%
17 | COC(c1ccc(C)cc1N1C(=O)CS/C1=N\C(=O)Nc1ccc(-c2nnc(-c3ccc(OC(F)(F)F)cc3)s2)cc1F)C(F)(F)F (stereo not drawn) [Compound J505, (Z)-1-(2-Fluoro-4-(5-(4-(trifluoromethoxy)phenyl)-1,3,4-thiadiazol-2-yl)phenyl)-3-(3-(5-methyl-2-(2,2,2-trifluoro-1-methoxyethyl)phenyl)-4-oxothiazolidin-2-ylidene)urea] | 50 to 100% |  | 
18 | Cc1ccc(OCCC(F)(F)F)c(N2C(=O)CS/C2=N\C(=O)Nc2ccc(-c3nnc(-c4ccc(OC(F)(F)F)cc4)s3)cc2F)c1 [Compound J501, (Z)-1-(2-Fluoro-4-(5-(4-(trifluoromethoxy)phenyl)-1,3,4-thiadiazol-2-yl)phenyl)-3-(3-(5-methyl-2-(3,3,3-trifluoropropoxy)phenyl)-4-oxothiazolidin-2-ylidene)urea] |  | 50 to 100% | 
19 | CC(=O)c1cc(-c2ncn(-c3ccc(C(F)(F)F)cn3)n2)ccc1NC(=O)/N=C1\SCC(=O)N1c1cc(C)ccc1COCC(F)(F)F [Compound J418, (Z)-1-(2-Acetyl-4-(1-(5-(trifluoromethyl)pyridin-2-yl)-1H-1,2,4-triazol-3-yl)phenyl)-3-(3-(5-methyl-2-((2,2,2-trifluoroethoxy)methyl)phenyl)-4-oxothiazolidin-2-ylidene)urea] |  | 0 to 50% | 
20 | Cc1ccc(OCCC(F)(F)F)c(N2C(=O)CS/C2=N\C(=O)Nc2ccc(-c3cn(-c4ccc(OC(F)(F)F)cc4)nn3)cc2)c1 [Compound J491, (Z)-1-(3-(5-Methyl-2-(3,3,3-trifluoropropoxy)phenyl)-4-oxothiazolidin-2-ylidene)-3-(4-(1-(4-(trifluoromethoxy)phenyl)-1H-1,2,3-triazol-4-yl)phenyl)urea] |  | 50 to 100% | 
21 | O=C(/N=C1\SCC(=O)N1c1cccc(-c2ccccc2)c1)Nc1ccc(-c2ncn(-c3ccc(OC(F)(F)F)cc3)n2)cc1F [Compound J715, (Z)-1-(3-([1,1′-Biphenyl]-3-yl)-4-oxothiazolidin-2-ylidene)-3-(2-fluoro-4-(1-(4-(trifluoromethoxy)phenyl)-1H-1,2,4-triazol-3-yl)phenyl)urea] |  | 0 to 50% | 
22 | COC(C)c1ccc(C)cc1N1C(=O)CS/C1=N\C(=O)Nc1ccc(-c2ncn(-c3ccc(C(F)(F)F)cn3)n2)cc1C(C)=O (stereo not drawn) [Compound J416, (Z)-1-(2-Acetyl-4-(1-(5-(trifluoromethyl)pyridin-2-yl)-1H-1,2,4-triazol-3-yl)phenyl)-3-(3-(2-(1-methoxyethyl)-5-methylphenyl)-4-oxothiazolidin-2-ylidene)urea] | 50 to 100% |  | 
23 | CN(C)c1ccc(C(F)(F)F)c(N2C(=O)CS/C2=N\C(=O)Nc2ccc(-c3cn(-c4ccc(OC(F)(F)F)cc4)nn3)cc2)c1 [Compound J495, (Z)-1-(3-(5-(Dimethylamino)-2-(trifluoromethyl)phenyl)-4-oxothiazolidin-2-ylidene)-3-(4-(1-(4-(trifluoromethoxy)phenyl)-1H-1,2,3-triazol-4-yl)phenyl)urea] |  | 0 to 50% | 
24 | CCOCc1ccc(C)cc1N1C(=O)CS/C1=N\C(=O)Nc1ccc(-c2nnc(-c3ccc(OC(F)(F)F)cc3)s2)cc1F [Compound J503, (Z)-1-(3-(2-(Ethoxymethyl)-5-methylphenyl)-4-oxothiazolidin-2-ylidene)-3-(2-fluoro-4-(5-(4-(trifluoromethoxy)phenyl)-1,3,4-thiadiazol-2-yl)phenyl)urea] | 50 to 100% |  | 
